As usually defined, the inhibition is the percentage by which the read-out fell short of the control. The Ki is a measure of affinity in units of concentration, obtained from inhibition or displacement.

Results on 1 compound are retold here after patent EP2353599A1, “8-hydroxyquinolines as inhibitors of cathepsin B” (University of Ljubljana, priority 2010, dated 2011).

For assay [1], the target named is T1, Cathepsin B (Homo sapiens, UniProt P07858). Put plainly: Reversibility with active site probe DCG-04 (labelling, SDS-PAGE, blot). The assay is classed as binding. The note with it: 0.1, 1, 10 and 50 µM inhibitor, 1 h, then 2 µM DCG-04. An excerpt:
Second, the reversibility of 5-nitro-8-hydroxyquinoline was also studied with the active site probe DCG-04. DCG-04 is a derivative of an irreversible epoxysuccinic inhibitor of cysteine proteases E-64 with an additional biotin moiety which enables detection of covalently modified proteases with labelling intensity correlating with enzymatic activity (Greenbaum D, Medzihradszky KF, Burlingame A, Bogyo M: Epoxide electrophiles as activity-dependent cysteine protease profiling and discovery tools. Chem Biol 2000, 7: 569-81.). 1 µg of recombinant cathepsin B in 50 mM Tris, pH 5.5 containing 1 mM DTT, 5 mM MgCl2 and 250 mM sucrose was incubated with 0.1, 1, 10 in 50 µM 5-nitro-8-hydroxyquinoline (diluted from 10 mM DMSO stocks) for 1 h at room temperature. Samples were then labelled with 2 µM DCG-04 for an additional h at room temperature. After boiling in reducing sample buffer for 10 min samples were analyzed by 12.5 % SDS-PAGE and transferred to a nitrocellulose membrane. The latter was then blocked with 0.5 % Tween 20 in PBS overnight at 4 °C and incubated with 1 µg/ml streptavidin-horseradish peroxidase in 0.2 % Tween 20 in PBS for 1 h at room temperature. The membrane was washed five times with 0.2 % Tween 20 in PBS and the spots on the membrane were visualized with 0.5 mg/ml 3,3'-diaminobenzidine and 0.0005 % (v/v) H2O2 in 50 mM Tris, pH 7.5. […]

A further assay deals with MCF-10A neoT cell line. Kind of assay: Millicell Matrigel in vitro tumour cell invasion assay. The class given is cell-based. Conditions: Homo sapiens, 24 h, read-out: inhibition of tumour invasion compared to DMSO control. On the procedure:
To assess the ability of 5-nitro-8-hydroxyquinoline to inhibit tumour cell invasion two independent experiments were used. First, an in vitro invasion model using Millicell Cell culture inserts (12 mm polycarbonate inserts with 12 µm pores) was performed. The bottom sides of 24-wells were coated with 100 µl of fibronectin from bovine plasma (25 µg/ml) and left in a laminar hood to dry. The upper side of Millicell inserts was coated with 100 µl of Matrigel (0.75 mg/ml in serum free medium) and incubated for 1 h at 37 °C. The inserts were then placed in with fibronectin coated wells. The upper compartments of the inserts were filled with 200 µl MCF-10A neoT cell suspension (7.5x10^5/ml) containing 5-nitro-8-hydroxyquinoline (10 µM) in serum free medium and the bottom compartments were filled 500 µl of medium containing 10 µM 5-nitro-8-hydroxyquinoline and 10 % fetal calf serum. After 24 h incubation the bottom sides of wells were washed with 500 µl of PBS and the cells that were attached were detached by 0.05 % trypsin and 0.02 % EDTA in PBS. […] After a 2 h incubation period the absorbance was measured at 490 nm. […] The percentage of cell invasion was calculated as the ratio between the invading cells and the total cell population.

For assay [2], the target named is T1, Cathepsin B. Kind of assay: Reversibility by mass spectrometry (ESI-MS of cathepsin B after incubation and dialysis). The assay is classed as binding. Conditions: equimolar inhibitor, 1 h room temperature, dialysis. On the procedure: Third, reversibility of 5-nitro-8-hydroxyquinoline was also checked with mass spectrometry. Cathepsin B (4.4 µM) was activated in the activation buffer for 5 min at 37 °C. Afterwards, an equimolar amount of the inhibitor was added to the enzyme and incubated for 1 h at room temperature. The mixture was dialyzed against water five times using Microcon Centrifugal Filter Devices YM-10 to avoid salt interferences and to remove unbound molecules of the test compound. Samples were then prepared by adding an equal volume of acetonitrile containing 0.1 % formic acid and analyzed with ESI-MS on an AutoSpec Q instrument. As a positive control CA-074 was used.

For assay [3], the target named is T1, Cathepsin B. Kind of assay: Cathepsin B endopeptidase activity, enzyme kinetics with substrate Z-RR-AMC. The class given is biochemical. On the procedure:
The effect of 8-hydroxyquinolines on cathepsin B enzymatic activity was assessed using enzyme kinetics. First, the effect of 8-hydroxyquinolines on cathepsin B endopeptidase activity was assessed using the cathepsin B specific endopeptidase substrate Z-RR-AMC. 5 µl of the Z-RR-AMC (final concentration 60, 180 and 360 µM) and 5 µl of respective compound at increasing concentrations were added to wells of a black microplate. 90 µl of human recombinant cathepsin B was then added to a final concentration of 0.4 nM in activation buffer (100 mM phosphate buffer, pH 6.0 with 0.1 % PEG, 5 mM DTT and 1.5 mM EDTA). All assay mixtures contained a constant amount of DMSO, i.e. 5 %. Formation of fluorescent degradation product was continuously monitored at 380 nm ± 20 nm excitation and […] ± 10 nm emission wavelengths on Tecan Safire^2™ at 37°C. Mechanism and the constant of inhibition (Ki) of cathepsin B endopeptidase activity were determined using the graphical method according to Cornish-Bowden (Cornish-Bowden A: A Simple Graphical Method for Determining the Inhibition Constants of Mixed, Uncompetitive and Non-Competitive Inhibitors. Biochem J 1974, 137:143-4.) and using the SigmaPlot® 11, Enzyme Kinetics Module™ 1.3. Table I. Results of testing the compounds according to Formula (I) on cathepsin B endopeptidase activity.

The target in the next assay is T2, cathepsin H (Homo sapiens, UniProt P09668).
T2 sequence (P09668 98-335): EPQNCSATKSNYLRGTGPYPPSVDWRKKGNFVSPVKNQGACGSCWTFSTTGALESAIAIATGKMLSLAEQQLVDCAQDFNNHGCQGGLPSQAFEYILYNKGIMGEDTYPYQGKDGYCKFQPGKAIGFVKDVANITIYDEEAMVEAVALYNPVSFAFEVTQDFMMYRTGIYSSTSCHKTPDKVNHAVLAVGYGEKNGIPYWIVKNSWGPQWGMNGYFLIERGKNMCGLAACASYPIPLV
Put plainly: Selectivity: Ki against cathepsin H, substrate R-AMC. The assay is classed as biochemical. On the procedure: Activation buffer used with cathepsin L was 100 mM acetate buffer, pH 5.5 with 0.1 % PEG, 5 mM DTT and 1.5 mM EDTA and with cathepsin H was 100 mM phosphate buffer, pH 6.8 with 0.1 % PEG, 5 mM DTT and 1.5 mM EDTA. Table II. Ki values for 5-nitro-8-hydroxyquinoline determined against cathepsins B, L and H.

On to `O=[N+]([O-])c1ccc(O)c2ncccc12` [Compound 1, 5-nitro-8-hydroxyquinoline], for which the “intensity of spots (DCG-04 labelling) versus DMSO control” value at Cathepsin B [1] is given as “did not differ significantly from the DMSO control”. In the assay with MCF-10A neoT cell line, the inhibition at 10 µM came out at 40.7%. Also, the “Molecular weight of cathepsin B after incubation with inhibitor” value at Cathepsin B [2] is recorded as “did not alter”. Moreover, the Mechanism of inhibition entry at Cathepsin B [3] (cathepsin B endopeptidase activity) is given as “uncompetitive inhibition”; at cathepsin H, “mixed”. Moreover, the inhibition constant (Ki) on Cathepsin B [3] (endopeptidase activity, substrate Z-RR-AMC, pH 6.0, 37°C) was 37.7 ± 3.5 µM; on cathepsin H (substrate R-AMC, pH 6.8), 220.8 ± 2.1 µM.
